Laboratory results published in patent publication US11219625B2, “Inhibitors of N-linked glycosylation and methods using same” (YALE UNIVERSITY, priority 2015, dated 2022).

Columns and labels:
A549 cells [1] = experiment: Cell cycle distribution by flow cytometry, A549; type: cell-based; conditions: A549, NGI-1 24 h
Procedure: FIGS. 5A-5G illustrate NGI-1 induces G1 arrest and senescence in EGFR addicted tumor cells. FIG. 5A illustrates cell cycle distribution of PC9 cells after 24 h NGI-1 treatment for 24 h determined by flow cytometry. […] FIG. 5B illustrates cell cycle distribution of A549 cells after 24 h NGI-1 treatment for 24 h determined by flow cytometry. FIG. 5C illustrates western blot time course of cyclin D1 expression in PC9 and A549 cells after NGI-1 treatment. FIG. 5D illustrates quantitative real-time PCR analysis of PC9 and A549 cells. A time course of cyclin D1 expression levels relative to GAPDH is represented. […] FIG. 5F illustrates senescence of PC9 cells explored by: cell autofluorescence, measured by flow cytometry using a detector for PE/YFP; lipofuscin accumulation, detected by confocal laser scanning microscopy using an excitation laser of 405 nm with acquired signals from spectrums of yellow 575-620 nm; and morphology changes, enlarged vs. flattened. […] Significance was calculated using a T test (*p<0.05. **p<0.01). FIG. 5G illustrates senescence of A549 cells explored by: cell autofluorescence, measured by flow cytometry using a detector for PE/YFP; lipofuscin accumulation, detected by confocal laser scanning microscopy using an excitation laser of 405 nm with acquired signals from spectrums of yellow 575-620 nm; and morphology changes, enlarged vs. flattened. […]

A549 cells [2] = experiment: MTT proliferation assay, A549; type: cell-based; conditions: A549, 10 μM NGI-1 or 1 μM tunicamycin
Procedure: FIGS. 4A-4H illustrate the finding that NGI-1 blocks RTK driven proliferation. FIG. 4A illustrates western blot analysis of EGFR phosphorylation (Y1173) and gel mobility in PC9 (EGFR-mutant) and A549 (k-ras mutant) NSCLC cells after 10 μM NGI-1 treatment for 24 h. […] Actin expression was used as a control for protein loading. FIG. 4B illustrates MTT assays results of PC9 following treatment with 10 μM NGI-1 or 1 μM tunicamycin for a total of 5 d. Relative proliferation id reported in fold increase from day 0. FIG. 4C illustrates MTT assays results of A549 following treatment with 10 μM NGI-1 or 1 μM tunicamycin for a total of 5 d. Relative proliferation id reported in fold increase from day 0. FIG. 4D illustrates protein phosphorylation profiles of PC9 cells analyzed by phospho-protein array to assess the response of PC9 to 10 μM NGI-1 for 24 h. FIG. 4E illustrates protein phosphorylation profiles of A549 cells analyzed by phospho-protein array to assess the response of A549 to 10 μM NGI-1 for 24 h. […]
Growth rates were determined by CellTiter 96 NonRadioactive Cell Proliferation Assay (Promega; Madison, Wis. USA) according to the manufacturer's directions. […] Cell numbers were estimated after 0, 3, and 5 days by adding MTT [(3-(4,5-Dimethylthiazol-2-yl)-2,5-diphenyltetrazolium bromide] reagent to the wells 4 hours before taking the spectrophotometric reading (absorbance at 570 nm).

Compound: Cc1cnc(NC(=O)c2cc(S(=O)(=O)N(C)C)ccc2N2CCCC2)s1 [NGI-1, 5-(N,N-Dimethylsulfamoyl)-N-(5-methylthiazol-2-yl)-2-(pyrrolidin-1-yl)benzamide]
- cell cycle distribution (A549 cells [1]): did not significantly change the cell cycle distribution
- effect on proliferation, MTT (A549 cells [2]): continued to proliferate
